From patent publication US11427553B2, “Dihydrooxadiazinones” (Bayer Aktiengesellschaft, priority 2017, dated 2022)
pIC50: −log10 of the molar value.

Key:
A-2058 cells = experiment: Assay 1 cell proliferation measurement, A-2058; format: cell-based; conditions: Homo sapiens, A2058; Melanoma; read-out: Anti-proliferation IC50 [nM] A-2058
Hs 578T cells = experiment: Assay 1 cell proliferation measurement, Hs 578T; format: cell-based; conditions: Homo sapiens, Breast, read-out: Anti-proliferation IC50 [nM] Hs 578T
[1] = Assay 6 in vitro metabolic stability in cryopreserved human hepatocytes (CL, Fmax); format: in vitro ADME; conditions: 1 μM test compound; for Clblood: hepatic in vivo blood clearance calculated (well-stirred) from half-life in cryopreserved human hepatocytes; for Fmax: maximal oral bioavailability calculated from half-life in cryopreserved human hepatocytes
In short: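 Test compound at 1 μM incubated with cryopreserved human hepatocytes (1.0×10^6 viable cells/ml, WME with 5% FCS) under shaking, with samples taken from 2 to 90 min, methanol-quenched and analysed by LC-MS/MS. Half-life gave intrinsic clearance, scaled with liver blood flow and hepatocellularity to CL and Fmax.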

SK-MEL-3 cells = experiment: Assay 1 cell proliferation measurement (CTG, 72 h), SK-MEL-3; format: cell-based, human; conditions: Homo sapiens, SK-MEL3; Assay 1, 72 h, Cell Titer Glo; read-out: SK-MEL-3 IC50 [nM] (melanoma)
In short: (§1)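 Seed cells, incubate overnight at 37 °C; measure baseline viability (CTG, 0 h plate); dose compound in a 10-step 2.5-fold series (max generally 100 nM final, DMSO 0.3%) for 72 h; read CTG luminescence; fit IC50 with 4 parameters.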

HeLa cells = experiment: Assay 1 cell proliferation measurement (CTG, 72 h), HeLa; format: cell-based, human; conditions: Homo sapiens, HeLa; Assay 1, 72 h, Cell Titer Glo; read-out: HeLa IC50 [nM] (Cervical cancer)
In short: as §1

IGR37 cells = experiment: Assay 1 cell proliferation measurement (CTG, 72 h), IGR37; format: cell-based; conditions: Homo sapiens, IGR-37, Cell Titer Glo, read-out: IGR37 IC50 [nM] (melanoma)
human full length PDE3A = human full length PDE3A (Homo sapiens (Human), UniProt Q14432); experiment: Assay 4 PDE3A enzyme inhibition (3H-cAMP SPA); format: biochemical; conditions: Sf9 cell extract
In short: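 Hydrolysis of [8-3H]cAMP by Sf9-expressed full-length PDE3A was measured by scintillation proximity, with enzyme diluted to keep kinetics linear and substrate consumption below 70%. Incubation ran 60 min at room temperature at pH 7.5.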

HEL 92.1.7 cells = experiment: Assay 1 cell proliferation measurement, HEL 92.1.7; format: cell-based; conditions: Homo sapiens, Erythroleukemia, read-out: Anti-proliferation IC50 [nM] HEL 92.1.7
DBTRG-05-MG cells = experiment: Assay 1 cell proliferation measurement, DBTRG-05-MG; format: cell-based; conditions: Homo sapiens, Glioblastoma, read-out: Anti-proliferation IC50 [nM] DBTRG-05-MG
human full length PDE3B = human full length PDE3B (Homo sapiens (Human), UniProt Q13370); experiment: Assay 5 PDE3B enzyme inhibition (3H-cAMP SPA); format: biochemical; conditions: Sf9 cell extract
In short: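 Compounds in DMSO are mixed with diluted PDE3B extract from Sf9 cells, and reactions start on adding tritiated cAMP. After 60 min at room temperature, yttrium scintillation proximity beads terminate hydrolysis and signal is counted; IC50 values come from sigmoidal dose-response curves.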

CHL-1 cells = experiment: Assay 1 cell proliferation measurement, CHL-1; format: cell-based; conditions: Homo sapiens, Melanoma, read-out: Anti-proliferation IC50 [nM] CHL-1
DK-MG cells = experiment: Assay 1 cell proliferation measurement, DK-MG; format: cell-based; conditions: Homo sapiens; Glioblastoma; read-out: Anti-proliferation IC50 [nM] DK-MG
PA-1 cells = experiment: Assay 1 cell proliferation measurement, PA-1; format: cell-based; conditions: Homo sapiens, Ovarian teratocarcinoma, read-out: Anti-proliferation IC50 [nM] PA-1
H4 cells = experiment: Assay 1 cell proliferation measurement, H4; format: cell-based; conditions: Homo sapiens; Astrocytoma; read-out: Anti-proliferation IC50 [nM] H4
NCI-H1734 cells = experiment: Assay 1 cell proliferation measurement, NCI-H1734; format: cell-based; conditions: Homo sapiens, Lung, read-out: Anti-proliferation IC50 [nM] NCI-H1734
HMCB cells = experiment: Assay 1 cell proliferation measurement, HMCB; format: cell-based; conditions: Homo sapiens, Melanoma, read-out: Anti-proliferation IC50 [nM] HMCB
IGR-1 cells = experiment: Assay 1 cell proliferation measurement, IGR-1; format: cell-based; conditions: Homo sapiens, Melanoma, read-out: Anti-proliferation IC50 [nM] IGR-1

Sequence of human full length PDE3B (Q13370 whole entry): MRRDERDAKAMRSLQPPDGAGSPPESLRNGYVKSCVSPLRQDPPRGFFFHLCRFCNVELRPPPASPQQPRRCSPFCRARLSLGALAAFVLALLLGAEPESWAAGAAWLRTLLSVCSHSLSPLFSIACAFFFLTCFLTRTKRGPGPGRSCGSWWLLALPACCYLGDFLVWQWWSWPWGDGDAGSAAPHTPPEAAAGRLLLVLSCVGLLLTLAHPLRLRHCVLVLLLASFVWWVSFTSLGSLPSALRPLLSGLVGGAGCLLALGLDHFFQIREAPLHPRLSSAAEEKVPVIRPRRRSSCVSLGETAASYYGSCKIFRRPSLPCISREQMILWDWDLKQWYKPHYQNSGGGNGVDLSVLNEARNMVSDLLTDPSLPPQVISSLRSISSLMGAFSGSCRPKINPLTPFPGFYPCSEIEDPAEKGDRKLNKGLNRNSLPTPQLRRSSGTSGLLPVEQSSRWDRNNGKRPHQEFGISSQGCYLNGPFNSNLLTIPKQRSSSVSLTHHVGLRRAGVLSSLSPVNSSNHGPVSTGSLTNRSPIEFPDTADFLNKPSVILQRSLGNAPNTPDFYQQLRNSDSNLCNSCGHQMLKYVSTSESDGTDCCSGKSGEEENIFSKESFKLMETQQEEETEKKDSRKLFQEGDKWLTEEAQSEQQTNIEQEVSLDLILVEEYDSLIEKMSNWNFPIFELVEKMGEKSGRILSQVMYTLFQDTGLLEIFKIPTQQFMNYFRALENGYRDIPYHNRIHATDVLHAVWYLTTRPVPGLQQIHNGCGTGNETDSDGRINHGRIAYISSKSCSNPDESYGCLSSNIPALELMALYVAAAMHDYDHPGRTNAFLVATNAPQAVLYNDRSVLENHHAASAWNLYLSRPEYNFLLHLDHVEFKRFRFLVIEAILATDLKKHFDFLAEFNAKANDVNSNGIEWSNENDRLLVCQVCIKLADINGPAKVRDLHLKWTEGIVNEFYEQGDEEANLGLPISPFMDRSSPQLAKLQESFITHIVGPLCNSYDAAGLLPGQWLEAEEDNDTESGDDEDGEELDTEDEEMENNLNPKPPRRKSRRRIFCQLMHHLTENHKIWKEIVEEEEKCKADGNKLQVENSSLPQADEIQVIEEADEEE
Sequence of human full length PDE3A (Q14432 whole entry): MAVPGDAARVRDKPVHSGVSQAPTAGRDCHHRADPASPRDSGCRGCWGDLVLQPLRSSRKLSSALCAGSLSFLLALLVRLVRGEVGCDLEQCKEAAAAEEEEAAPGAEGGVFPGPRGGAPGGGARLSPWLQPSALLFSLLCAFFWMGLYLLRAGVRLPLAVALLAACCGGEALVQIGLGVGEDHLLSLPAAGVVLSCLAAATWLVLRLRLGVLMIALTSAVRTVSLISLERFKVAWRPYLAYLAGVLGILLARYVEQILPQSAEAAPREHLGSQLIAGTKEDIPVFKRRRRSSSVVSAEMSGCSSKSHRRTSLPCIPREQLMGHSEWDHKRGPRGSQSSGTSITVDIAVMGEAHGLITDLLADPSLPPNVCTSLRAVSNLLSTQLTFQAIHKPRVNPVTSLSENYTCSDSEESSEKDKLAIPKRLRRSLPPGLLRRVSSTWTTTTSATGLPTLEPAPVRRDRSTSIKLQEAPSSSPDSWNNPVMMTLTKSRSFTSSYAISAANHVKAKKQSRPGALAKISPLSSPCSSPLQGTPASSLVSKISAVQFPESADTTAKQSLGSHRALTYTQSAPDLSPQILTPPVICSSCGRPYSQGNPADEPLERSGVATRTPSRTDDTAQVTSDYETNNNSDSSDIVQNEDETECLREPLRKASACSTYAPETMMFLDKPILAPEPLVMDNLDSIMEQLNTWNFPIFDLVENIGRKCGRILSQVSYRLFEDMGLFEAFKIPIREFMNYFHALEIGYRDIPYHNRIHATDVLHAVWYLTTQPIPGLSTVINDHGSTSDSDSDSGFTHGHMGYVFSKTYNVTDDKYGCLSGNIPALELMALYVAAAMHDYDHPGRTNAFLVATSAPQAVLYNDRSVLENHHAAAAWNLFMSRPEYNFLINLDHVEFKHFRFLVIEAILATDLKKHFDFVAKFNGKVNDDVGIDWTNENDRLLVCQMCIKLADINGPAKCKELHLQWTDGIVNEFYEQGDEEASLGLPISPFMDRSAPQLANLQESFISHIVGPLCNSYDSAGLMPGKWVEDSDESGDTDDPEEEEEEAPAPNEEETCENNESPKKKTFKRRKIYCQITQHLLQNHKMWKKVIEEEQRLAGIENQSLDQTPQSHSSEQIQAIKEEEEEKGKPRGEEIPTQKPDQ

Row | Compound | Clblood [1] | Fmax [1] | IC50 (SK-MEL-3 cells) | IC50 (HeLa cells) | pIC50 (human full length PDE3A) | pIC50 (human full length PDE3B) | IC50 (NCI-H1734 cells) | IC50 (A-2058 cells) | IC50 (Hs 578T cells) | IC50 (IGR37 cells) | IC50 (HEL 92.1.7 cells) | IC50 (DBTRG-05-MG cells) | IC50 (CHL-1 cells) | IC50 (DK-MG cells) | IC50 (PA-1 cells) | IC50 (H4 cells) | IC50 (HMCB cells) | IC50 (IGR-1 cells)
1 | Cc1cc(C2=NNC(=O)OC2)ccc1-c1ccc(F)cc1 [Example 7, 5-(4′-Fluoro-2-methylbiphenyl-4-yl)-3,6-dihydro-2H-1,3,4-oxadiazin-2-one] | 5.5 mL/min/kg | 75% | 13 nM | 5 nM | 6.66 | 6.77 | 26 nM |  |  |  |  |  |  |  |  | 44 nM |  | 
2 | O=C1NN=C(c2ccc(N3CCC(F)(F)CC3)c(F)c2)CO1 [Example 1, 5-[4-(4,4-Difluoropiperidin-1-yl)-3-fluorophenyl]-3,6-dihydro-2H-1,3,4-oxadiazin-2-one] | 4 mL/min/kg | 82% | 3 nM | 2 nM | 6.56 | 6.76 | 19 nM |  |  |  | 20 nM |  |  |  |  | 30 nM | 19 nM | 89 nM
3 | O=C1NN=C(c2ccc(N3CCOCC3)c(F)c2)CO1 [Example 4, 5-[3-Fluoro-4-(morpholin-4-yl)phenyl]-3,6-dihydro-2H-1,3,4-oxadiazin-2-one] | <0.17 mL/min/kg | 100% | 16 nM | 7 nM | 6.69 | 6.81 | 40 nM |  |  |  |  |  |  |  |  | 47 nM |  | 

Now from value to molecule, other results behind:

Row | Clblood [1] | Fmax [1] | IC50 (SK-MEL-3 cells) | IC50 (HeLa cells) | pIC50 (human full length PDE3A) | pIC50 (human full length PDE3B) | IC50 (NCI-H1734 cells) | Compound | IC50 (A-2058 cells) | IC50 (Hs 578T cells) | IC50 (IGR37 cells) | IC50 (HEL 92.1.7 cells) | IC50 (DBTRG-05-MG cells) | IC50 (CHL-1 cells) | IC50 (DK-MG cells) | IC50 (PA-1 cells) | IC50 (H4 cells) | IC50 (HMCB cells) | IC50 (IGR-1 cells)
4 | 4.5 mL/min/kg | 80% | 5 nM | 2 nM | 6.84 | 6.73 |  | COCCCc1ccc(C2=NNC(=O)OC2)cc1C(F)(F)F [Example 267, 5-[4-(3-Methoxypropyl)-3-(trifluoromethyl)phenyl]-3,6-dihydro-2H-1,3,4-oxadiazin-2-one] | 40 nM | 34 nM | 7 nM | 26 nM | 35 nM | 16 nM | 18 nM | 44 nM |  |  | 
5 |  |  | 18 nM | 6 nM | 6.68 | 6.61 | 42 nM | Cc1cc(C2=NNC(=O)OC2)ccc1-c1ccc(F)c(F)c1 [Example 8, 5-(3′,4′-Difluoro-2-methylbiphenyl-4-yl)-3,6-dihydro-2H-1,3,4-oxadiazin-2-one] |  |  | 16 nM |  |  |  |  |  | 50 nM |  | 
6 | 6.83 mL/min/kg | 69% | 17 nM | 6 nM | 6.16 | 6.10 |  | CC(C)(C)CCc1ccc(C2=NNC(=O)OC2)cc1C(F)(F)F [Example 269, 5-[4-(3,3-Dimethylbutyl)-3-(trifluoromethyl)phenyl]-3,6-dihydro-2H-1,3,4-oxadiazin-2-one] | 61 nM | 66 nM | 24 nM | 44 nM | 50 nM | 47 nM | 49 nM | 49 nM |  |  | 
